Test system: SSX-2 specific CD4^+ T cells
Assay: Intracellular IFN-γ staining of CD4+ T cells from patient LAU672 after stimulation with SSX-2 peptide submixtures or single peptides
Type: cell-based, human
Settings: representative CD4+ T cell clone, FIG. 2A
Protocol: Generation of SSX-2 specific CD4^+ T cells. In vitro sensitization of CD4^+ T cells was carried out as described previously for CD8^+ T cells. Briefly, 1 to 2×10^6 CD4^+ T cells highly enriched from peripheral blood mononuclear cells (PBMC) by magnetic cell sorting using a miniMACS device (Miltenyi Biotec, Sunnyvale, Calif., USA) were stimulated with a mixture containing peptides spanning the entire SSX-2 protein sequence (Ayyoub et al, J Immunol 2002. 32:2292-2299) (2 μM each) in the presence of irradiated autologous cells from the CD4^− fraction in CTL medium containing rhIL-2 (10 U/ml) and IL-7 ([…]). The enriched CD4^+ T cells were cultured 2-3 weeks prior to being tested. CD4^+ T cells secreting cytokines in response to peptide stimulation were isolated by cytokine guided flow cytometry cell sorting using the cytokine secretion detection kit (Miltenyi Biotec) and cloned by limiting dilution culture in the presence of PHA (Sigma), allogenic irradiated PBMC and rhIL-2 as described (Valmori et al., 2001, Cancer Res. 61:501-512). Clones were subsequently expanded by periodic (3-4 weeks) stimulation under the same conditions.
As recombinant SSX-2 protein became available, we initiated a study to identify CD4^+ T cell epitopes. To that purpose, we prepared monocyte-derived dendritic cells (DC) from patient LAU672 by isolating CD 14+ monocytes from PBMC by magnetic cell sorting. The obtained population (containing >95% CD14^+ cells) was cultured in CTL medium containing 1,000 U/ml of rhGM-CSF and 1,000 U/ml of rhIL-4 during 6 days. At the end of the culture period, DC were incubated with recombinant SSX-2 protein for 12 hours and used to stimulate autologous CD4^+ T cells isolated from PBMC by magnetic cell sorting.
Two weeks after stimulation, culture aliquots were tested using either a pool containing all SSX-2 overlapping peptides or submixtures, each composed of 3 peptides (P1-3, P4-6 etc., FIG. 1). […]
The presence of specific CD4^+ T cells was monitored by intracellular staining with INF-γ specific antibodies (FIG. 1A). […]

In the case of “WEKMKASEKIFYVYMKRKYEAM (SSX-2 peptide) [SSX-2 37-58]”, the “reactivity to single peptides in the submixture P4-6” value is reported as “active peptide”.
